According to patent US20240108625A1, “CDK4/6 INHIBITORS AS A TREATMENT FOR CLONAL HEMATOPOIESIS” (Washington University, priority 2022, published 2024):
“Also recorded” adds a separate entry of the source.

Tested on: HSPCs bearing CH mutations
Assay: Genomic analysis of CH clone expansion (change in VAF) in blood of SCLC patients randomized to carboplatin/etoposide with trilaciclib or placebo
Type: in vivo, human
Experimental: To evaluate the effect of trilaciclib on the expansion of CH clones in patients receiving chemotherapy, the following experiments were conducted. Blood samples obtained from a randomized, placebo-controlled trial of trilaciclib in SCLC patients receiving fist-line carboplatin and etoposide chemotherapy were sequenced pre- and post-treatment.
Blood samples were obtained from a clinical trial of SCLC patients receiving first-line carboplatin/etoposide combination chemotherapy randomized to concurrently receive the CDK4/6 inhibitor trilaciclib or placebo (FIG. 1). We performed targeted mutational analysis of genomic DNA from peripheral blood before and after five cycles of carboplatin/etoposide (˜5 months) in 59 individuals, 32 of whom received concurrent trilaciclib with each cycle of chemotherapy (FIG. 1, top row) and 27 who received placebo (FIG. 1, middle row). As a comparator group, sequential samples were obtained from 178 individuals from another longitudinal study (FIG. 1, bottom row) selected as cancer-free and matched in age and length of follow-up to the participants in the SCLC clinical trial. All samples were analyzed as described below to measure how the number of HSPCs bearing CH mutations (reflected by the variant allele frequency [VAF]) changed over time in individuals randomized to receive trilaciclib compared to placebo and to untreated healthy adults.
A custom-targeted CH panel was developed using VariantPlex (ArcherDX), an amplicon sequencing method that leverages bi-directional primers and molecular barcodes (MBCs) to enable reliable detection of extremely low VAF variants. The CH panel included exonic regions of the nine CH genes most commonly mutated in solid tumor patients (DNMT3A, TET2, ASXL1, PPM1D, TP53, CHEK2, JAK2, SRSF2, and SF3B1).
In brief, following DNA fragmentation, ligation with a universal MBC adapter was performed, tagging each DNA molecule with a unique molecular index (UMI) and allowing for unidirectional amplification of the sample using gene-specific primers. The resulting libraries were sequenced using a NovaSeq 6000 instrument. The average unique coverage per sample was 20,746×. Using tumor-normal dilution series from six AML patients, we developed a custom CH variant calling pipeline integrating three variant callers (Mutect2, Vardict, LoFreq) with post-calling filtering to remove germ line variants and artifacts. A critical feature of this pipeline is the empiric estimation of variant-specific error rates using a technical panel of normals consisting of 30 blood samples from children18.
The distribution of mutations within genes was characterized by notable enrichments for DDR genes (PPM1D, TP53, CHEK2) relative to DTA genes. For each CH mutation, the change in VAF between the first and second time points was calculated. […]

SMILES: CN1CCN(c2ccc(Nc3ncc4cc5n(c4n3)C3(CCCCC3)CNC5=O)nc2)CC1 [trilaciclib]
- growth suppression of CH clones by gene: TET2 (SCLC patients, carboplatin/etoposide, FIG. 5): largest impact
- expansion of CH mutations in the DDR pathway (TP53, CHEK2, PPM1D) following chemotherapy (change in VAF) (SCLC patients, concurrent with five cycles of carboplatin/etoposide (~5 months), relative to placebo group): reduced expansion following chemotherapy; also recorded: lower expansion with chemotherapy
- growth of CH clones bearing mutations in epigenetic modifiers DTA (DNMT3A, TET2, ASXL1) (SCLC patients, concurrent with five cycles of carboplatin/etoposide (~5 months), vs placebo): suppressed the growth of CH clones
- carboplatin-related clonal hematopoiesis (DDR and DTA) (carboplatin chemotherapy): inhibited carboplatin-related clonal hematopoiesis; also recorded: protects against both DDR and DTA clonal hematopoiesis
